In test [1] the test system is osteoprogenitor cell MC3T3-E1. Briefly: Alkaline phosphatase (osteoblast differentiation marker) activity after ornithine addition, MC3T3-E1. To be noted: 7 days culture, vs no addition of ornithine. It is filed as cell-based. The method, then:
The cells were placed in a T-75 flask using a medium and cultured in a CO2 incubator (5% CO2, 37° C.). The medium was changed every other day, and the cells were collected when they reached 80% confluence and used for the test.
(§1) The cells were adjusted with medium to 1.2x10^5 cells/0.2 mL/well and seeded in a 48-well plate. […] After culturing for 7 days, the cells were washed once with PBS for ALP activity measurement and then cryopreserved together with the plate. In addition, after culturing for 14 days, the culture supernatant was sampled for measurement of the amount of osteocalcin used in the below-mentioned Experimental Example 2, and cryopreserved. The test was performed with n=5 and the medium was changed every 3-4 days.
The cells were washed with PBS and lysed with 60 µL/well of cell lysing agent (Cell-LyEX1 containing 2 mM PMSF). After stirring the plate at room temperature for 30 min, the supernatant was diluted 5-fold and the obtained solution was used as a sample for measurement. ALP activity in the cells was measured by LabAssay ALP. With this kit, ALP activity was measured from the amount of p-nitrophenol per unit amount of protein produced within a given period of time. The amount of protein in the solution was measured using Micro BCA Protein Assay Reagent Kit.
(§2) The test was a two-sided test with Student’s t-test, and P<0.05 (less than 5% of null hypothesis) or more was judged as significant difference. The data in the graph is shown in mean±standard error.

For test [2], the system named is osteoprogenitor cell MC3T3-E1. Briefly: Osteocalcin (osteoblast differentiation marker) production amount after ornithine addition, MC3T3-E1. It counts as cell-based. As to conditions: ornithine 5.0 mg/mL, 14 days culture, culture supernatant, vs no addition of ornithine. The method, then:
as §1
For the measurement of the amount of osteocalcin in the culture supernatant, the supernatant was diluted 10-fold and the measurement was performed using Mouse Osteocalcin EIA kit.
as §2

Test [3] concerns osteoprogenitor cell MC3T3-E1. Briefly: Alkaline phosphatase activity after ornithine addition, MC3T3-E1, influence of BMP-2 concentration. As to conditions: ornithine 5 mg/mL, 7 days, vs ornithine no addition. It is filed as cell-based. The method, then: The cells were placed in a 10 cm petri dish using a medium and cultured in a CO2 incubator (5% CO2, 37° C.). The medium was changed every other day, and the cells were collected when they reached 80% confluence and used for the test.
The cells were adjusted with medium to 1.2x10^5 cells/0.2 mL/well and seeded in a 48-well plate. […] After 7 days, the cells were washed once with PBS, 50 µL of 0.1% Triton-X was added, and the mixture was further sonicated for 1 min to prepare a cell lysate. The test was performed with n=4 and the medium was changed every 3-4 days.
ALP activity of the above-mentioned cell lysate was measured by LabAssay ALP. With this kit, ALP activity was measured from the amount of p-nitrophenol per unit amount of protein produced within a given period of time. The amount of protein in the solution was measured using Micro BCA Protein Assay Reagent Kit.
as §2

The test system of test [4] is osteoclast progenitor cell RAW264. Briefly: Osteoclast number measurement (TRAP staining) after ornithine addition, RAW264. It is filed as cell-based. To be noted: 50 ng/mL RANKL, 7 days, vs ornithine non-addition. The method, then: The cells were placed in a T-75 flask using a medium and cultured in a CO2 incubator (5% CO2, 37° C.). The medium was changed every other day, and the cells were collected when they reached 80% confluence and used for the test. Cells were prepared in a test medium at 3x10^3 cells/0.1 mL/well and seeded in a 96 well plate. […] After culturing for 7 days, TRAP staining was performed, and TRAP staining-positive and multinucleated cells were counted, based on which the ability to suppress differentiation into osteoclasts was examined by comparison. The medium was changed every 3-4 days. The test was performed with n=5. The test was a two-sided test with Student’s t-test, and P<0.05 (less than 5% of null hypothesis) or more was judged as significant difference. The data in the graph is shown in mean±standard error.

Test [5] has as its system osteoporosis-disuse muscle atrophy simultaneous onset mouse model. Briefly: Gastrocnemius muscle weight, osteoporosis-disuse muscle atrophy simultaneous onset mouse model. It counts as in vivo. To be noted: OVX mice with cast fixation, ornithine 1% blended feed, vs OVX (ornithine non-administration with cast fixation) group.

Consider `Cl.NCCC[C@H](N)C(=O)O` [ornithine, L-Ornithine Monohydrochloride], for which the alkaline phosphatase activity result in test [1] (ornithine 0.2 mg/mL), in test [1] (ornithine 1.0 mg/mL), in test [1] (ornithine 5.0 mg/mL), in test [3] (BMP-2 50 ng/mL), in test [3] (BMP-2 100 ng/mL) and in test [3] (BMP-2 200 ng/mL) was “significantly increased” in each case. Moreover, in test [2], the osteocalcin production amount entry is listed as “significantly increased”. The figures for the number of osteoclasts result in test [4] (ornithine 0.02 mg/mL), in test [4] (ornithine 0.1 mg/mL) and in test [4] (ornithine 0.5 mg/mL) were “decreased”, “significantly decreased” and “significantly decreased”, respectively. Also, the “gastrocnemius muscle weight (per body weight)” value in test [5] is reported as “increased”.
